Results: patent publication US8362031B2, “Lonidamine analogues and treatment of polycystic kidney disease” (University of Kansas, priority 2004, dated 2013)
Entries after “also recorded” stand apart in the source; their conditions may differ.

Assays:
[1] = test system: rats; experiment: Toxicology: organs sectioned and examined after dosing; assay type: in vivo; conditions: for Toxicology: liver, lung, pancreas, spleen, heart and kidney (histology): two animals examined, findings per animal; for Kidney (histology) / Liver and Pancreas (histology): single injection, sacrificed five days after injection, per animal
Experimental: In at least two of the animals in each group, the pancreas, right kidney and part of the liver, heart, spleen, and lung were removed and evaluated for toxic effects.
The toxicology of animals receiving some of the compounds of the present invention IP and/or oral was examined. At the time of sacrifice samples of liver, pancreas, heart, lung, spleen and kidney were removed, visually inspected, and immersion fixed in Bouin's solution for a minimum of 48 hours. All organs were then sectioned and examined for evidence of necrosis, inflammation, hemorrhage, and possible tumors. The major veins in each tissue were also examined for distention, especially in the liver and pancreas, and any other abnormalities are compared to known histopathological states. In addition to the above, the heart was examined for evidence of fibrosis in the muscular walls, and to compare the thickness of the ventricular walls. The pancreas was examined mainly for calcium deposits, while the lung was checked for signs of any exudates or hemorrhage, especially in the alveolar spaces. Finally, the kidney was examined mainly for microscopic hemorrhages, tubular necrosis or alterations in the glomeruli in the cortex.
In this example, the effects of RC-MC-30 were compared with those of lonidamine in sexually mature rats. As discussed above, each of the rats (8 total) received a single injection and were sacrificed five days after injection and examined.

[2] = test system: Male Long Evans rats; experiment: In vivo antispermatogenic testing in Long Evans rats; conditions: for Mortality (25 mg/kg) / Response 25 mg/kg: 25 mg/kg single i.p. injection; for Response 25 mg/kg / Response 200 mg/kg: animals responding out of animals surviving, five days following injection; for Mortality (200 mg/kg) / Response 200 mg/kg: 200 mg/kg single i.p. injection
[3] = test system: Salmonella Typhimurium TA 100; experiment: Ames test for mutagenicity (plate assay, colony count); conditions: 48 hours at 37° C.; for Ames test (+)S9 0.1 mg/pl. / Ames test (+)S9 1 mg/pl. / Ames test (+)S9 10 mg/pl.: (+)S9 mix; for Ames test (−)S9 0.1 mg/pl. / Ames test (−)S9 1 mg/pl. / Ames test (−)S9 10 mg/pl.: (−)S9 mix

SMILES	Toxicology: liver, lung, pancreas, spleen, heart and kidney (histology) ([1]; 25 mg/kg, listed as JSW-1-158)	Toxicology: liver, lung, pancreas, spleen, heart and kidney (histology) ([1]; 200 mg/kg, listed as JSW-1-158)	Mortality (25 mg/kg) [2]	Response 25 mg/kg [2]	Mortality (200 mg/kg) [2]	Response 200 mg/kg [2]	Ames test (+)S9 0.1 mg/pl. [3]	Ames test (+)S9 1 mg/pl. [3]	Ames test (+)S9 10 mg/pl. [3]	Ames test (−)S9 0.1 mg/pl. [3]	Ames test (−)S9 1 mg/pl. [3]	Ames test (−)S9 10 mg/pl. [3]	Toxicology: liver, lung, pancreas, spleen, heart and kidney (histology) ([1]; 25 mg/kg)	Toxicology: liver, lung, pancreas, spleen, heart and kidney (histology) ([1]; 200 mg/kg)	Kidney (histology) ([1]; Dosage 25 mg/kg)	Liver and Pancreas (histology) ([1]; Dosage 25 mg/kg)	Kidney (histology) ([1]; Dosage 200 mg/kg)	Liver and Pancreas (histology) ([1]; Dosage 200 mg/kg)	Toxicology: liver, lung, pancreas, spleen, heart and kidney (histology) ([1]; 25 mg/kg, listed as JSW-1-160)	Toxicology: liver, lung, pancreas, spleen, heart and kidney (histology) ([1]; 200 mg/kg, listed as JSW-1-160)
COC(=O)c1nn(Cc2ccc(Cl)cc2Cl)c2cc(F)ccc12 [JWS-1-158, 1-(2,4-dichlorobenzyl)-6-fluoro-1H-indazole-3-carboxylic acid methyl ester]	liver, lung, pancreas, spleen, heart and kidney all appeared within normal limits; also recorded: The lung had thickening of the alveolar and bronchiole walls, and scattered areas of moderate sized hemorrhaging covering several adjacent alveoli	The pancreas had areas of lymphocytic infiltrates extending from the periphery inwards between the acinar cells; also recorded: liver, lung, pancreas, spleen, heart and kidney all appeared within normal limits	0/5	4/5	0/5	5/5	Pass	Pass	Pass	Pass	Pass	Pass								
COC(=O)c1nn(Cc2ccc(Cl)cc2Cl)c2cccnc12 [JWS-1-110]			0/5	0/5	0/5	0/5	Pass	Pass	Pass	Pass	Pass	Pass	The spleen had distended veins and necrosis in the white pulp; also recorded: The liver had distended portal veins with surrounding small patches of hepatic necrosis; also recorded: The lung contained scattered hemorrhagic areas around the alveoli and terminal bronchioles; also recorded: the spleen had distended veins and diminished amounts of white pulp containing necrotic cells	The liver showed distended portal veins with scattered, small patches of necrosis; also recorded: The lung contained multiple hemorrhagic areas throughout the alveoli, and terminal and respiratory bronchioles; also recorded: the spleen demonstrated distended veins, and diminished white pulp with necrotic cells; also recorded: The liver had distended veins, with scattered, small patches of necrosis throughout; also recorded: The pancreas had distended veins, but no other noticeable abnormalities						
COC(=O)c1nn(Cc2ccc(Cl)cc2Cl)c2ccccc12 [RC-MC-30, 1-(2,4-dichlorobenzyl)indazole-3-carboxylic acid methyl ester]			0/5	3/5	0/5	4/5	Pass	Pass	Pass	Pass	Pass	Pass			Small areas with blood	Non-remarkable,	Patchy hemorrhagic areas,	Non-remarkable,		
O=C(O)/C=C/c1nn(Cc2ccc(Cl)cc2Cl)c2cc(F)ccc12 [JWS-1-170, 3-[1-(2,4-dichlorobenzyl)-6-fluoro-1H-indazol-3-yl]-acrylic acid]			0/5	3/5	0/5	3/3	Pass	Pass	Pass	Pass	Pass	Pass	liver, lung, pancreas, spleen, heart and kidney that appeared within normal limits	liver, lung, pancreas, spleen, heart and kidney all appeared within normal limits; also recorded: The liver did have moderate patches (5-10 cells in diameter) of necrosis mainly in the periportal areas						
COC(=O)c1nn(Cc2ccc(Cl)cc2Cl)c2ccc(OC)nc12 [JWS-1-142, 1-(2,4-dichlorobenzyl)-5-methoxy-1H-pyrazolo[4,3-b]pyridine-3-carboxylic acid methyl ester]			0/5	0/5	0/5	0/5	Pass	Pass	Pass	Pass	Pass	Pass	liver, lung, pancreas, spleen, heart and kidney all appeared within normal limits	The liver contained a small, confined cluster of lymphocytes in the parenchyma; also recorded: liver, lung, pancreas, spleen, heart and kidney all appeared within normal limits						
CCOC(=O)c1nn(Cc2ccc(Cl)cc2Cl)c2ccccc12 [RC-MC-156, 1-[(2,4-dichlorobenzyl)-1H-indazole]-3-carboxylic acid ethyl ester]			0/5	2/5	0/5	4/5	Pass	Pass	Pass	Pass	Pass	Pass	The lung did have scattered small, hemorrhagic patches, mainly in the alveolar and terminal bronchiole regions; also recorded: The lung showed widespread hemorrhagic regions throughout the alveoli and terminal bronchioles with small hemosiderin deposits around a few smaller bronchioles	liver, lung, pancreas, spleen, heart and kidney all appeared within normal limits; also recorded: The lung had small, scattered areas of hemorrhage mainly around the alveoli and small bronchioles; also recorded: The liver had small (4-5 cells in diameter) patches of necrosis scattered throughout the parenchyma						
COc1ccc2c(n1)c(C(=O)NN)nn2Cc1ccc(Cl)cc1Cl [JWS-1-146, 1-(2,4-dichlorobenzyl)-5-methoxy-1H-pyrazolo[4,3-b]pyridine-3-carboxylic acid hydrazide]			0/5	0/5			Pass	Pass	Pass	Pass	Pass	Pass	liver, lung, pancreas, spleen, heart and kidney that appeared within normal limits							
NNC(=O)c1nn(Cc2ccc(Cl)cc2Cl)c2cc(F)ccc12 [JWS-1-160, 1-(2,4-dichlorobenzyl)-6-fluoro-1H-indazole-3-carboxylic acid hydrazide]			0/5	3/5	2/5	3/3	Pass	Pass	Pass	Pass	Pass	Pass							The kidney does have scattered, small patches of tubular necrosis in the inner cortex; also recorded: The liver had several distended veins, but no other abnormalities were noted; also recorded: liver, lung, pancreas, spleen, heart and kidney all appeared within normal limits	The kidney did have scattered, small patches of tubular necrosis in the inner cortex; also recorded: liver, lung, pancreas, spleen, heart and kidney all appeared within normal limits
